Laboratory results: patent US10172835B2, “Anticancer agent composition” (J-Pharma Co., Ltd., priority 2014, dated 2019)
Structures can show the parent of a compound that is named as a salt.

How the values were obtained:
[1] = system: KO99L cells (tPTEN−/− tumor cell line); assay: WST-1 cell viability assay on KO99L cells; type: cell-based, murine; settings: Mus musculus, KO99L cells, 48 h
Experimental: Two different assays were employed: i) In a 96-well plate format, cells (4.0±0.1×10^4 per well; 100 μL) were incubated with effectors (48 h, 37° C.; n=4 per experiment) and then WST-1 reagent (10 μL; Roche Diagnostics) added to each well of 96-well plates, incubated, and the formazan production was measured at 490 nm; and ii) cells (2.0±0.1×10^4 per well; 100 μL) were incubated with effectors (48 h, 37° C.; n=4 per experiment) and then bromodeoxyuridine reagent (10 μL/well; Roche Diagnostics) was added to each well and incubated (8 h, 37° C.). The cells were then fixed, denatured and incubated with anti-BrdU-conjugated with peroxidase (POD) antibody (100 μL/well). Colorimetric substrate (TMB: tetramethyl-benzidine; 100 μL/well) was added and BrdU incorporation quantified via optical density measurement (450 nm) which corresponds to DNA synthesis and proliferating cells.

[2] = system: KO99L cells; assay: Annexin-V / DAPI apoptosis assay, KO99L cells; type: cell-based, murine; settings: 20.0 μM
Experimental: Apoptosis assessment was performed by measuring phosphatidyl-serine membrane redistribution via annexin-V-FITC (Invitrogen). Cells (5.0±0.1×10^5 per well; 2.0 mL) were incubated with effectors, and re-suspended in staining solution (110 μL; Annexin-V ( 1/10) and incubated in the dark (15 min, RT). […] Basal apoptosis and necrosis were determined on control untreated cells.

[3] = system: mTORC1 / Akt activation; assay: Western blot of S6RP, 4EBP1 and Akt phosphorylation, KO99L cells; type: cell-based, murine; settings: 2.0-24 h; COMPOUND-JP 10.0 μM; MK-2206 5.0 μM; KU0063794 5.0 μM; rapamycin 10.0 nM; L-Asp, Erw 2.5 units/ml; velcade at 24 h
[4] = system: c-myc; assay: Western blot of c-myc levels, KO99L cells; type: cell-based, murine; settings: COMPOUND-JP 10.0 μM 2.0-24 h; Velcade 8 nM 24 h; KU0063794 10.0 μM; MK-2206 10.0 μM; rapamycin 100 nM
Experimental: (§1) Cell extracts were prepared using a cell lysis buffer (50 mM HEPES, pH 7.4, 150 mM NaCl, 20 mM EDTA, 100 mM NaF, 10 mM Na3VO4, 0.5% nonyl phenoxypolyethoxylethanol (NP40) supplemented with a cocktail of protease inhibitors. After SDS-PAGE separation and transfer to nitrocellulose immunoblotting was performed using the following antibodies against: Akt (Cell Signaling Technologies, #9272), CHOP (#2895), cleaved caspase 3 (#9664), c-Myc (#9402), eIF2a (#9721), 4EBP1 (#9644), LC3A/B (#12741), PARP (#9542), pJnk (T183/Y185) (#9251), pSer235-236-S6RP (#4856), pSer473-Akt (#9271), pSer65-4EBP1 (#9451) and S6RP (#2217); Bax (Sigma-Aldrich, B8429); PUMA (Abcam, ab54288); Bak (Millipore, 06536); ATF4 (Santa Cruz Biotechnologies, sc200), GADD34 (sc8327), Hsp60 (sc-1722), Hsp90 (sc-13119) and XBP1 (sc-7160); ATF6 (Imgenex, IMG-273).

[5] = system: CHOP; assay: Western blot of CHOP protein levels, KO99L cells; type: cell-based, murine; settings: for CHOP induction: FIG. 5B, COMPOUND-JP 5.0 and 10.0 μM, L-Asp 2.5 units/ml, rapamycin 10.0 nM, MK-2206 10.0 μM, KU0063794 10.0 μM; for CHOP expression, time course: FIG. 5A, COMPOUND-JP 10.0 μM, L-Asp, Erw 2.5 units/ml, 2.0-24 h
Experimental: as §1

[6] = system: 44As3-11 cell derived from human scirrhous stomach cancer; assay: MTT, single agents and combination with COM-JP, 44As3-11 cells; type: cell-based
Experimental: (§2) Two kind of cancer cells of a 44As3-11 cell derived from human scirrhous stomach cancer and a Panc-1 cell derived from human pancreatic cancer were cultured in the presence or absence of COM-JP, to which GEM and Pac was added on day 2, and the resultant mixture was continued to be cultured for 2 hours. Subsequently, the medium was replaced with a new medium, and the culture was performed in the presence or absence of COM-JP for 2 days more. Finally, the cells were collected, and the quantity of survival activity of the cells was determined by a MTT method. In each experiment, three cases of the group under the same conditions were measured, and the average value and the standard error, and the p-value of significance test were shown in the diagram.

[7] = system: Panc-1 cell derived from human pancreatic cancer; assay: MTT, single agents and combination with COM-JP, Panc-1 cells; type: cell-based
Experimental: as §2

[8] = system: HT-29 cell derived from human large intestine cancer; assay: Tumor growth in nude mouse inoculated subcutaneously with HT-29 cells; type: in vivo
Experimental: A HT-29 cell was inoculated subcutaneously into a mouse, and the transition of the size of the tumor lump was measured with time from the day on which the tumor has grown to a certain size, when each of COM-JP and 5-FU was used alone or in combination.

[9] = system: KO99L cells; assay: Combination studies with COMPOUND-JP, WST-1 viability, Chou-Talalay combination index; type: cell-based, murine; settings: 48 h, suboptimal concentrations, in combination with COMPOUND-JP
Experimental: Combinations were analyzed by ANOVA followed by Tukey's Multiple comparison test to determine significance between experimental groups. The synergism between drugs was analyzed using the Chou-Talalay method. […] P-value <0.05 was accepted as statistically significant (*:p<0.05; **:p<0.01; ***:p<0.001). Analyses were performed using the GraphPAd Prism 3.0 software.

[10] = system: HT-29 cell derived from human large intestine cancer; assay: Tumor growth in nude mouse SOI model (HT-29 grafted onto wall of large intestine); type: in vivo
Description: […] was expressed in a HT-29 cell derived from human large intestine cancer, and which was grafted onto the wall of large intestine of a mouse to produce a metamouse. According to this, the quantity of the size of the tumor could be determined with time with emission intensity. In FIG. 16, the size of tumor in each treatment group was shown with a bar graph. Group 1 is a control group, Groups 2 to 4 are a group in which COM-JP was intraperitoneally administered alone at 3.1, 12.5, and 50 mg/kg weight/day every day for 4 weeks, Group 5 is a group in which CDDP was intraperitoneally administered alone at 2.5 mg/kg/day three times on day 0, day 6, and day 13, Groups 6 to 8 are a group in which Groups 2 to 4 and Group 5 were combined to be administered in combination, and Group 9 is a group in which COM-JP was orally administered at 300 mg/kg/day every day for 4 weeks.

NC1(C(=O)O)CC2CCC1C2 (centres unmarked) [BCH, 2-Aminobicyclo-(2,2,1)-heptane-2-carboxylic acid, reference compound]
viability at 10000 µM ([1]; 10.0 mM): 30%

CC(C)[C@H](NC(=O)c1ccc2ccccc2n1)C(=O)N[C@@H](CC(=O)O)C(=O)COc1c(F)cccc1F [QvD-OPH, reference compound]
quantity of apoptotic cells when co-administered with COMPOUND-JP [2]: markedly decreased the quantity of apoptotic cells

NC1(c2ccc(-c3nc4ccn5c(=O)[nH]nc5c4cc3-c3ccccc3)cc2)CCC1 [MK-2206, reference compound]
4EBP1 phosphorylation [3]: completely block | Akt phosphorylation (serine 473) / activation [3]: completely block | S6RP phosphorylation (mTORC1 activation) [3]: completely block | c-myc protein level [4]: dramatic disappearance of all three c-myc isoforms | CHOP induction [5]: did not result in CHOP induction

Nc1ccn([C@@H]2O[C@H](CO)[C@@H](O)C2(F)F)c(=O)n1 [gemstabine, gemcitabine]
inhibitory effect of combination with COM-JP (15 μM) [6]: additive effect | proliferation activity, agent used alone for 2 hours [6]: decreased in a dose-dependent manner | inhibitory effect of combination with COM-JP (15 μM) [7]: additive effect | proliferation activity, agent used alone for 2 hours [7]: decreased in a dose-dependent manner | relative inhibitory effect of single agents [7]: extremely small

O=c1[nH]cc(F)c(=O)[nH]1 [5-FU, 5-fluorouracil]
combined effect with COM-JP on tumor growth ([8]; COM-JP and 5-FU in combination): additive | increase of the tumor, single administration ([8]; compared with untreated control group): more significant decrease

CC(C)C[C@H](NC(=O)[C@H](Cc1ccccc1)NC(=O)c1cnccn1)B(O)O [velcade, bortezomib, reference compound]
4EBP1 phosphorylation [3]: completely abolished | Akt phosphorylation (serine 473) / activation [3]: completely abolished | S6RP phosphorylation (mTORC1 activation) [3]: completely abolished | c-myc protein level [4]: Analogous observations | CHOP induction [5]: strongly induced

CC(C)C[C@@H](N)C(=O)O [D-Leucine, D-leucine, reference compound]
viability at 30000 µM ([1]; 30.0 mM): 60%

COc1cccc2c1C(=O)c1c(O)c3c(c(O)c1C2=O)C[C@@](O)(C(=O)CO)C[C@@H]3O[C@H]1C[C@H](N)[C@H](O)[C@H](C)O1 [doxorubicin, doxorubicin hydrochloride]
combination effect with COMPOUND-JP on metabolic activity/cell survival (Combination Index) [9]: synergy

COc1ccc(-c2ccc3c(N4CCOCC4)nc(N4C[C@@H](C)O[C@@H](C)C4)nc3n2)cc1CO [KU0063794, rel-5-[2-[(2R,6S)-2,6-dimethyl-4-morpholinyl]-4-(4-morpholinyl)pyrido[2,3-d]pyrimidin-7-yl]-2-methoxybenzenemethanol, reference compound]
4EBP1 phosphorylation [3]: completely block | Akt phosphorylation (serine 473) / activation [3]: completely block | S6RP phosphorylation (mTORC1 activation) [3]: completely block | c-myc protein level [4]: slightly influenced the two lower bands | CHOP induction [5]: did not result in CHOP induction | combination effect with COMPOUND-JP on metabolic activity/cell survival (Combination Index) [9]: less efficient

CC(=O)O[C@H]1C(=O)[C@@]2(C)[C@H]([C@H](OC(=O)c3ccccc3)[C@]3(O)C[C@H](OC(=O)[C@H](O)[C@@H](NC(=O)c4ccccc4)c4ccccc4)C(C)=C1C3(C)C)[C@]1(OC(C)=O)CO[C@@H]1C[C@@H]2O [paclitaxel]
inhibitory effect of combination with COM-JP (15 μM) [6]: additive effect | proliferation activity, agent used alone for 2 hours [6]: decreased in a dose-dependent manner | relative inhibitory effect of single agents [6]: stronger than that of gemstabine | inhibitory effect of combination with COM-JP (15 μM) [7]: additive effect | proliferation activity, agent used alone for 2 hours [7]: decreased in a dose-dependent manner | relative inhibitory effect of single agents [7]: stronger than that of gemstabine

[NH2][Pt]([NH2])([Cl])[Cl] [CDDP, cisplatin, reference compound]
efficacy on tumor growth, single administration ([10]; COM-JP i.p. 3.1, 12.5, 50 mg/kg/day 4 weeks, CDDP i.p. 2.5 mg/kg/day day 0, 6, 13): not recognized | efficacy of combination with COM-JP on tumor growth ([10]; Group 8: COM-JP 50 mg/kg/day i.p. plus CDDP 2.5 mg/kg/day): synergistic effect

B1: Erw: enzyme that can degrade extracellular asparagine, with higher glutaminase activity (protein, UniProt P06608 22-348, looked up)
L-asparaginase: ADKLPNIVILATGGTIAGSAATGTQTTGYKAGALGVDTLINAVPEVKKLANVKGEQFSNMASENMTGDVVLKLSQRVNELLARDDVDGVVITHGTDTVEESAYFLHLTVKSDKPVVFVAAMRPATAISADGPMNLLEAVRVAGDKQSRGRGVMVVLNDRIGSARYITKTNASTLDTFKANEEGYLGVIIGNRIYYQNRIDKLHTTRSVFDVRGLTSLPKVDILYGYQDDPEYLYDAAIQHGVKGIVYAGMGAGSVSVRGIAGMRKAMEKGVVVIRSTRTGNGIVPPDEELPGLVSDSLNPAHARILLMLALTRTSDPKVIQEYFHTY
4EBP1 phosphorylation [3]: altered 4EBP1 phosphorylation | Akt phosphorylation (serine 473) / activation [3]: did not significantly influence Akt phosphorylation | S6RP phosphorylation (mTORC1 activation) [3]: altered S6RP phosphorylation | CHOP expression, time course [5]: induced a transient response

B2: L-Asp: enzyme that can degrade extracellular asparagine and also possesses glutaminase activity (protein, UniProt P00805 23-348, looked up)
L-asparaginase 2: LPNITILATGGTIAGGGDSATKSNYTVGKVGVENLVNAVPQLKDIANVKGEQVVNIGSQDMNDNVWLTLAKKINTDCDKTDGFVITHGTDTMEETAYFLDLTVKCDKPVVMVGAMRPSTSMSADGPFNLYNAVVTAADKASANRGVLVVMNDTVLDGRDVTKTNTTDVATFKSVNYGPLGYIHNGKIDYQRTPARKHTSDTPFDVSKLNELPKVGIVYNYANASDLPAKALVDAGYDGIVSAGVGNGNLYKSVFDTLATAAKTGTAVVRSSRVPTGATTQDAEVDDAKYGFVASGTLNPQKARVLLQLALTQTKDPQQIQQIFNQY
4EBP1 phosphorylation [3]: altered 4EBP1 phosphorylation | Akt phosphorylation (serine 473) / activation [3]: did not significantly influence Akt phosphorylation | S6RP phosphorylation (mTORC1 activation) [3]: altered S6RP phosphorylation | CHOP expression, time course [5]: lower magnitude compared to COMPOUND-JP | combination effect with COMPOUND-JP on metabolic activity/cell survival (Combination Index) [9]: potentiate
